These results are taken from patent US9862792B2, “Diblock copolymers and polynucleotide complexes thereof for delivery into cells” (University of Washington, priority 2008, dated 2018).

In one test the test system is caspase 3/7. The test can be described thus: Caspase 3/7 activity assay in HeLas. Format: cell-based, human. To be noted: HeLa, 30 minutes, 25 μM peptide or equivalent polymer; relative to no treatment. How it is done:
Caspase 3/7 Activity Assay. Caspase 3/7 activation was measured using a commercially available assay kit. This assay utilizes a profluorescent caspase 3/7 substrate that once enzymatically cleaved becomes fluorescent allowing for determination of relative enzyme activity using a fluorescent plate reader. Here, HeLas were incubated for 30 minutes with 25 μM peptide (alone or as polymer conjugate) in addition to polymer alone in a quantity equivalent to the conjugate samples. Afterwards, a caspase 3/7 fluorigenic indicator was added directly to the culture media for each sample. Plates were shaken for 1 hour and then assayed using a fluorescent plate reader. Data were expressed as percent caspase activity relative to samples receiving no treatment.

Test [1] concerns mitochondrial membrane potential in HeLas. The test can be described thus: Flow cytometry of mitochondrial membrane potential (JC-1 dye). It counts as cell-based, human. To be noted: HeLa, 2 hours, 10 μM peptide or equivalent conjugate or polymer alone; versus no treatment. How it is done:
Flow Cytometry Evaluation of Mitochondrial Membrane Potential. Loss of mitochondrial membrane potential, a known indicator for apoptosis, was assessed using the JC-1 dye. […] HeLas were incubated for 2 hours with 10 μM peptide or equivalent conjugate or polymer alone. JC-1 was added at a final concentration of 5 μg/mL and incubated for 15 minutes. Cells were washed 2 times with PBS, trypsinized, and resuspended in 0.5% BSA for flow cytometric analysis. Percent of cells displaying mitochondrial depolarization was quantified based on the number of green fluorescent cells that were negative for red fluorescence. Here, a significant loss of red fluorescent JC-1 aggregates and therefore a loss in mitochondrial polarization was detected following treatment with both the Antp-BH3 peptide and the polymer peptide conjugate (FIG. 21 A).
(Flow cytometry measures light scatter and fluorescence of single cells or particles in a stream.)

For the substance “NH2-RQIKIWFQNRRMKWKKMGQVGRQLAIIGDDINRRYDSC-COOH (H-RQIKIWFQNRRMKWKKMGQVGRQLAIIGDDINRRYDSC-OH) [Antp-BH3]”, the “caspase 3/7 activation” value in the test on caspase 3/7 was “approximately 2.5 fold”. For the same substance, the “increase in percent of cells exhibiting loss of mitochondrial polarity” value in test [1] is on record as “approximately 4 fold”.
